{
  "source": "paper PMC4232510",
  "about": "“Identification of Functionally Important Residues of the Rat P2X4 Receptor by Alanine Scanning Mutagenesis of the Dorsal Fin and Left Flipper Domains” (PLoS ONE, 2014)",
  "test_in_all_cases": "whole-cell patch clamp, HEK293T cells expressing mutant",
  "assay_type_in_all_cases": "cell-based",
  "conditions_in_all_cases": "for relative responsiveness: 100 µM agonist 2 s, relative to ATP (100%)",
  "key": {"[1]": {"target": "T1, rP2X4R D280A mutant (Rattus norvegicus, UniProt P51577, D280A)", "T1 construct": "expressed in transfected cells; host or cells: HEK293T", "T1 sequence (P51577 1-388 D280A)": "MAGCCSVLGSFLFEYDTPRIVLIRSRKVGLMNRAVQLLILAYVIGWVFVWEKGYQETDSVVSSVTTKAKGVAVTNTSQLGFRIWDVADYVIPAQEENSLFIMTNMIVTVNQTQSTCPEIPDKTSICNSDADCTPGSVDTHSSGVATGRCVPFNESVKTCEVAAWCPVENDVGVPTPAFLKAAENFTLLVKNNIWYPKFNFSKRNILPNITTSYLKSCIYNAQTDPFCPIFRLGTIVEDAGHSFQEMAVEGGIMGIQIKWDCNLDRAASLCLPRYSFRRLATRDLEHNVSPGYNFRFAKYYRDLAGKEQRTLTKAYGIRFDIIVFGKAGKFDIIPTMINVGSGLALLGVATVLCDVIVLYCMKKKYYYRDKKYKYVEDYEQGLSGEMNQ", "procedure": "(§1) To express the recombinant channels, we used human embryonic kidney (HEK) 293T cells (American Type Culture Collection, Rockville, MD, USA) grown in Dulbecco modified Eagle’s medium (Thermo Fisher Scientific, Waltham, MA) supplemented with 10% fetal bovine serum (Sigma-Aldrich, St Louis, MO), 50 U/ml penicillin and 50 µg/ml streptomycin (both Thermo Fisher Scientific, Waltham, MA) in a humidified 5% CO2 and 95% air at 37°C. Cells were cultured in 75 cm^2 plastic culture flasks (NUNC, Rochester, NY) for 36–72 hours until reaching 80–95% confluence. Before the day of transfection, the cells were plated on 35 mm culture dishes (Sarstedt, Newton, NC) and incubated at 37°C for at least 24 h. Transfection was done using 2 µg of either WT or mutant receptor DNA with 2 µl of JetPrime reagent in 2 ml of Dulbecco modified Eagle’s medium, according to manufacturer’s instructions (PolyPlus-transfection, Illkirch, France). Transfected cells were identified by the fluorescence signal of EGFP using the Olympus IX71 inverted research microscope with fluorescence illuminators (Model IX71; Olympus, Melville, NY).\n(§2) cDNAs encoding the sequences of the rP2X4 and mutated subunits were subcloned into the pIRES2-EGFP vector (Clontech, Mountain View, CA, USA). To generate the mutants, oligonucleotides (synthesized and provided by VBC-Genomics, Vienna, Austria or Sigma Aldrich) containing specific mutagenesis mismatches were introduced into the rP2X4/pIRES2-EGFP template using PfU Ultra DNA polymerase (Thermo Fisher Scientific). A High-Speed Plasmid Mini Kit (Geneaid, Taipei City, Taiwan) was used to isolate the plasmids for transfection. Dye terminator cycle sequencing (ABI PRISM 3100, Applied Biosystems, Foster City, CA) was used to identify and verify the presence of the mutations. The sequencing was performed by the DNA Sequencing Laboratory, Institute of Microbiology, ASCR, Prague.\n(§3) ATP-induced currents were recorded from whole cells clamped to −60 mV using an Axopatch 200B patch-clamp amplifier (Axon Instruments, Union City, CA). The recordings were captured and stored using the Digidata 1322A and pClamp9 software package (Axon Instruments). During the experiments, the cell culture was perfused with a bath solution containing: 142 mM NaCl, 3 mM KCl, 2 mM CaCl2, 1 mM MgCl2, 10 mM 4-(2-Hydroxyethyl)piperazine-1-ethanesulfonic acid (HEPES) and 10 mM D-glucose, adjusted to pH 7.3 with 1 M NaOH. The patch electrodes were filled with a solution containing: 154 mM CsCl, 11 mM EGTA and 10 mM HEPES, adjusted to pH 7.2 with 1.6 M CsOH. The whole-cell configuration was used to abolish the influence of natively present metabotropic receptors for ATP and we used intracellular cesium to block any kind of possible background potassium conductance. Potency of ATP was measured based on the activation of naïve (not previously stimulated) receptors using a short (2–5 s) application of various concentrations of ATP. The results are expressed as molar concentration of ATP required to produce 50% of the maximal response (EC50). One or two responses were recorded from one cell, if not otherwise stated, and responses from different cells were pooled. The maximum current amplitude (Imax) was measured in response to application of supramaximal concentrations (100–1000 µM) of ATP. Responsiveness to P2XR agonists 2-MeS-ATP, ATPγS, BzATP, and α,β-meATP, all applied in 100 µM concentration, was expressed as percentage of response in comparison to 100 µM ATP treatment for selected mutants. In all mutants, the whole cell currents were also measured in the presence of 3 µM IVM, which was dissolved in dimethyl sulfoxide, stored in stock solutions at 10 mM, and diluted to required concentrations in bath solution in the day of experiment. The control and drug containing solutions were applied via a rapid (exchange time 30–40 ms) perfusion system (RSC-200, BIOLOGIC, Claix, France). All other chemicals are from Sigma-Aldrich. […]"}, "[2]": {"target": "T2, rP2X4R L214A mutant (Rattus norvegicus, UniProt P51577, L214A)", "T2 construct": "expressed in transfected cells; host or cells: HEK293T", "T2 sequence (P51577 1-388 L214A)": "T1 sequence (P51577 1-388 D280A) with L214A, A280D", "procedure": "as §1, §2, §3"}, "[3]": {"target": "T3, rP2X4R H286A mutant (Rattus norvegicus, UniProt P51577, H286A)", "T3 construct": "expressed in transfected cells; host or cells: HEK293T", "T3 sequence (P51577 1-388 H286A)": "T1 sequence (P51577 1-388 D280A) with A280D, H286A", "procedure": "as §1, §2, §3"}, "[4]": {"conditions": "100 µM ATP 60 s, biexponential fit"}, "[5]": {"conditions": "contribution of τdes2, 100 µM ATP 60 s"}, "[6]": {"conditions": "decay after removal of 1 or 3 µM ATP, 3 µM IVM"}, "[7]": {"conditions": "naïve receptors, 2–5 s application"}, "[8]": {"conditions": "3 µM IVM 4-6 min vs IVM-untreated"}},
  "note": "Changes are numbered by the printed parent chain.",
  "data": [
    {"molecule": "2′(3′-O-(4-Benzoylbenzoyl)adenosine 5′-triphosphate [BzATP]", "values": [
      {"measurement": "relative responsiveness", "setting": "[1]", "value": "25.4±1.5", "unit": "%"},
      {"measurement": "relative responsiveness", "setting": "[2]", "value": "5.9±0.5", "unit": "%"},
      {"measurement": "relative responsiveness", "setting": "[3]", "value": "25.6±4.0", "unit": "%"}
    ]},
    {"molecule": "CSc1nc(N)c2ncn([C@@H]3O[C@H](COP(=O)(O)OP(=O)(O)OP(=O)(O)O)[C@@H](O)[C@H]3O)c2n1", "note": "[2-MeS-ATP, 2-(Methylthio)adenosine 5′-triphosphate]", "values": [
      {"measurement": "relative responsiveness", "setting": "[1]", "value": "56.3±7.8", "unit": "%"},
      {"measurement": "relative responsiveness", "setting": "[2]", "value": "21.4±1.7", "unit": "%"},
      {"measurement": "relative responsiveness", "setting": "[3]", "value": "67.9±1.2", "unit": "%"}
    ]},
    {"molecule": "Nc1ncnc2c1ncn2[C@@H]1O[C@H](COP(=O)(O)OP(=O)(O)OP(=O)(O)O)[C@@H](O)[C@H]1O", "note": "[ATP]", "values": [
      {"measurement": "EC50 rightward shift compared to WT", "setting": "[1]", "value": "approximately 10 fold"},
      {"measurement": "τdes1", "setting": "[1]; [4]", "value": "3.9 ± 1.2", "unit": "s"},
      {"measurement": "τdes2", "setting": "[1]; [4]", "value": "22.9 ± 7.8", "unit": "s"},
      {"measurement": "Imax", "setting": "[1]; 100–1000 µM ATP", "value": "0.7 ± 0.1", "unit": "nA"},
      {"measurement": "Imax+IVM", "setting": "[1]; ATP after 3 µM IVM 4-6 min", "value": "3.6 ± 0.4", "unit": "nA"},
      {"measurement": "A2 /(A1+A2)", "setting": "[1]; [5]", "value": "62 ± 6", "unit": "%"},
      {"measurement": "τoff +IVM", "setting": "[1]; [6]", "value": "5.5 ± 0.3", "unit": "s"},
      {"measurement": "EC50", "setting": "[1]; [7]", "value": "26 ± 8.2", "unit": "µM"},
      {"measurement": "τdes", "setting": "[1]; weighted, 100 µM ATP 60 s", "value": "15 ± 3.7", "unit": "s"},
      {"measurement": "EC50 rightward shift compared to WT", "setting": "[2]", "value": "approximately 10 fold"},
      {"measurement": "τdes1", "setting": "[2]; [4]", "value": "1.9 ± 0.4", "unit": "s"},
      {"measurement": "τdes2", "setting": "[2]; [4]", "value": "12.6 ± 1.9", "unit": "s"},
      {"measurement": "Imax", "setting": "[2]; 100–1000 µM ATP", "value": "1.0 ± 0.2", "unit": "nA"},
      {"measurement": "Imax+IVM", "setting": "[2]; ATP after 3 µM IVM 4-6 min", "value": "3.9 ± 0.8", "unit": "nA"},
      {"measurement": "A2 /(A1+A2)", "setting": "[2]; [5]", "value": "62 ± 3", "unit": "%"},
      {"measurement": "τoff +IVM", "setting": "[2]; [6]", "value": "3.4 ± 0.6", "unit": "s"},
      {"measurement": "EC50", "setting": "[2]; [7]", "value": "25 ± 5.7", "unit": "µM"},
      {"measurement": "τdes", "setting": "[2]; weighted, 100 µM ATP 60 s", "value": "8.8 ± 1.3", "unit": "s"},
      {"measurement": "τdes1", "setting": "[3]; [4]", "value": "4.0 ± 0.8", "unit": "s"},
      {"measurement": "τdes2", "setting": "[3]; [4]", "value": "16.2 ± 1.6", "unit": "s"},
      {"measurement": "Imax+IVM", "setting": "[3]; ATP after 3 µM IVM 4-6 min", "value": "4.2 ± 0.7", "unit": "nA"},
      {"measurement": "A2 /(A1+A2)", "setting": "[3]; [5]", "value": "55 ± 5", "unit": "%"},
      {"measurement": "τoff +IVM", "setting": "[3]; [6]", "value": "12 ± 2.1", "unit": "s"},
      {"measurement": "EC50", "setting": "[3]; [7]", "value": "20 ± 2.9", "unit": "µM"},
      {"measurement": "τdes", "setting": "[3]; weighted, 100 µM ATP 60 s", "value": "11 ± 1.4", "unit": "s"}
    ]},
    {"molecule": "Nc1ncnc2c1ncn2[C@@H]1O[C@H](CO[P@](=O)(O)O[P@](=O)(O)O[P@@](=O)(O)S)[C@@H](O)[C@H]1O", "note": "[ATPγS, Adenosine 5′-(γ-thio)triphosphate]", "values": [
      {"measurement": "relative responsiveness", "setting": "[1]", "value": "55.7±3.8", "unit": "%"},
      {"measurement": "relative responsiveness", "setting": "[2]", "value": "7.9±2.0", "unit": "%"},
      {"measurement": "relative responsiveness", "setting": "[3]", "value": "39.8±6.2", "unit": "%"}
    ]},
    {"molecule": "CC[C@H](C)[C@H]1O[C@]2(CC[C@@H]1C)C[C@@H]1C[C@@H](C/C=C(\\C)[C@@H](O[C@H]3C[C@H](OC)[C@@H](O[C@H]4C[C@H](OC)[C@@H](O)[C@H](C)O4)[C@H](C)O3)[C@@H](C)/C=C/C=C3\\CO[C@@H]4[C@H](O)C(C)=C[C@@H](C(=O)O1)[C@]34O)O2", "note": "[IVM, ivermectin]", "values": [
      {"measurement": "Fold incr. Imax", "setting": "[1]; [8]", "value": "5.1 ± 0.5", "unit": "fold"},
      {"measurement": "Fold incr. Imax", "setting": "[2]; [8]", "value": "3.7 ± 0.7", "unit": "fold"},
      {"measurement": "Fold incr. Imax", "setting": "[3]; [8]", "value": "1.9 ± 0.3", "unit": "fold"}
    ]},
    {"molecule": "Nc1ncnc2c1ncn2C1OC(COP(=O)(O)CP(=O)(O)OP(=O)(O)O)C(O)C1O", "note": "(stereo not drawn) [α,β-meATP, α,β-methyleneadenosine 5′-triphosphate]", "values": [
      {"measurement": "relative responsiveness", "setting": "[1]", "value": "33.1±6.0", "unit": "%"},
      {"measurement": "relative responsiveness", "setting": "[2]", "value": "6.5±1.5", "unit": "%"},
      {"measurement": "relative responsiveness", "setting": "[3]", "value": "30.0±6.8", "unit": "%"}
    ]}
  ]
}
